Laboratory results taken from patent US8686044B2, “Amide derivative, pest control agent containing the amide derivative, and use of the amide derivative” (Mitsui Chemicals Agro, Inc., priority 2008, dated 2014).
Read-outs that look alike come from different tables or passages of the source.

How the values were obtained:
Format in all cases: in vivo
[1] = test system: Spodoptera litura; assay: Pesticidal test against Spodoptera litura (cabbage leaf dip); conditions: foliar, 144 h, 2-stage larvae, examined after 6 days, 25° C., read-out: pesticidal rate; for pest or weed control at 1 ppm: concentration 1 ppm; for pest or weed control at 10 ppm: concentration 10 ppm
How it was run: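 Cabbage leaf pieces dipped 30 seconds in compound solution at a predetermined concentration and air-dried, then offered to second-stage larvae, five per group in two replicates. Held at 25° C. Living and dead larvae counted after 6 days.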

[2] = test system: Laodelphax striatellus; assay: Pesticidal test against Laodelphax striatellus (rice seedling spray); conditions: 144 h, read-out: pesticidal rate
How it was run: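 Rice seedlings sprayed with 2.5 ml acetone solution of compound at a predetermined concentration, air-dried, then infested with third-stage Laodelphax striatellus larvae in capped water-containing tubes at 25 °C. Living and dead insects counted after 6 days; ten larvae per group, two replicates.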

[3] = test system: Plutella xylostella; assay: Pesticidal test against Plutella xylostella (cabbage leaf dip); conditions: foliar, 144 h, 2-stage larvae, examined after 6 days, 25° C., read-out: pesticidal rate; for pest or weed control at 1 ppm: concentration 1 ppm; for pest or weed control at 10 ppm: concentration 10 ppm
How it was run: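 Second-stage larvae (5 per group, two replicates) were released onto air-dried cabbage leaf discs that had been immersed for 30 seconds in compound solution at a set concentration. Mortality was scored after 6 days at 25° C.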

[4] = test system: Musca domestica; assay: Pesticidal test against Musca domestica (petri dish dry film); conditions: 24 h, concentration 100 ppm, female adults, examined after 1 day, 25° C., read-out: pesticidal rate
Description: Pesticidal Test against Musca domestica
1 ml of an acetone solution in which a test compound had been prepared at a predetermined concentration was added dropwise to a petri dish having a diameter of 9 cm, and air-dried, and then the female adults of Musca domestica were released and the petri dish was capped. They were left to stand in a thermostatic chamber at 25° C., and the numbers of the living pests and the dead pests were examined after 1 day. The test was carried out with five larvae per group in two replicates.

[5] = concentration 100 ppm, 3-stage larvae, examined after 6 days, 25° C.

CN(C(=O)c1cccc(C#N)c1)c1cccc(C(=O)Nc2c(I)cc(C(F)(C(F)(F)F)C(F)(F)C(F)(F)F)cc2C(F)(F)F)c1F (stereo not shown) [7-1828]
≥ 70%: pest or weed control at 1 ppm [1] | pest or weed control at 100 ppm [2, 5] | pest or weed control at 1 ppm [3] | pest or weed control at 100 ppm [4]

O=C(Nc1cccc(C(=O)Nc2c(I)cc(C(F)(C(F)(F)F)C(F)(F)F)cc2C(F)(F)F)c1F)c1ccccc1Cl [6-1734]
≥ 70%: pest or weed control at 1 ppm [1] | pest or weed control at 100 ppm [2, 5] | pest or weed control at 1 ppm [3] | pest or weed control at 100 ppm [4]

CN(C(=O)c1ccccc1)c1cccc(C(=O)Nc2c(Br)cc(C(F)(C(F)(F)F)C(F)(F)C(F)(F)F)cc2C(F)(F)F)c1 (stereo not shown) [7-346]
≥ 70%: pest or weed control at 1 ppm [1] | pest or weed control at 100 ppm [2, 5] | pest or weed control at 1 ppm [3] | pest or weed control at 100 ppm [4]

N#Cc1ccc(C(=O)Nc2c(Br)cc(C(F)(C(F)(F)F)C(F)(F)F)cc2C(F)(F)F)c(F)c1NC(=O)c1ccc(Cl)nc1 [1-1968, N-(3-(2-bromo-4-(perfluoropropan-2-yl)-6-(trifluoromethyl)phenylcarbamoyl)-6-cyano-2-fluorophenyl)-6-chloronicotinamide]
≥ 70%: pest or weed control at 10 ppm [1] | pest or weed control at 1 ppm [3] | pest or weed control at 100 ppm [4]

CN(C(=O)c1cccc(F)c1)c1cccc(C(=O)Nc2c(I)cc(C(F)(C(F)(F)F)C(F)(F)C(F)(F)F)cc2I)c1F (stereo not shown) [7-1340]
≥ 70%: pest or weed control at 1 ppm [1] | pest or weed control at 100 ppm [2, 5] | pest or weed control at 1 ppm [3] | pest or weed control at 100 ppm [4]

CN(C(=O)c1c(F)cccc1F)c1cccc(C(=O)Nc2c(I)cc(C(F)(C(F)(F)F)C(F)(F)C(F)(F)F)cc2I)c1F (stereo not shown) [7-1360]
≥ 70%: pest or weed control at 1 ppm [1] | pest or weed control at 100 ppm [2, 5] | pest or weed control at 1 ppm [3] | pest or weed control at 100 ppm [4]

CN(C(=O)c1ccccc1)c1cccc(C(=O)N(C)c2c(Br)cc(C(F)(C(F)(F)F)C(F)(F)F)cc2C(F)(F)F)c1F [9-2164, N-(2-bromo-4-(perfluoropropan-2-yl)-6-(trifluoromethyl)phenyl)-2-fluoro-N-methyl-3-(N-methylbenzamide)benzamide]
≥ 70%: pest or weed control at 1 ppm [1] | pest or weed control at 100 ppm [2, 5] | pest or weed control at 1 ppm [3] | pest or weed control at 100 ppm [4]

CN(C(=O)OCC(Cl)(Cl)Cl)c1cccc(C(=O)Nc2c(I)cc(C(F)(C(F)(F)F)C(F)(F)F)cc2C(F)(F)F)c1F [12-835]
≥ 70%: pest or weed control at 1 ppm [1] | pest or weed control at 100 ppm [2] | pest or weed control at 1 ppm [3] | pest or weed control at 100 ppm [4]

O=C(Nc1c(I)cc(C(F)(C(F)(F)F)C(F)(F)C(F)(F)F)cc1I)c1cccc(NC(=O)c2c(F)cccc2F)c1F (stereo not shown) [6-1360]
≥ 70%: pest or weed control at 1 ppm [1] | pest or weed control at 100 ppm [2, 5] | pest or weed control at 1 ppm [3] | pest or weed control at 100 ppm [4]

O=C(Nc1c(I)cc(C(F)(C(F)(F)F)C(F)(F)F)cc1C(F)(F)F)c1cccc(NC(=O)c2ccccc2Cl)c1 [6-428]
≥ 70%: pest or weed control at 1 ppm [1] | pest or weed control at 1 ppm [3] | pest or weed control at 100 ppm [4]

CN(C(=O)OCC(Cl)(Cl)Cl)c1cccc(C(=O)Nc2c(I)cc(C(F)(C(F)(F)F)C(F)(F)C(F)(F)F)cc2C(F)(F)F)c1F (stereo not shown) [12-864, 2,2,2-trichloroethyl 2-fluoro-3-(2-iodo-4-(perfluorobutan-2-yl)-6-(trifluoromethyl)phenylcarbamoyl)phenyl(methyl)carbamate]
≥ 70%: pest or weed control at 1 ppm [1] | pest or weed control at 100 ppm [2] | pest or weed control at 1 ppm [3] | pest or weed control at 100 ppm [4]

CN(C(=O)c1ccccc1Cl)c1cccc(C(=O)Nc2c(I)cc(C(F)(C(F)(F)F)C(F)(F)F)cc2C(F)(F)F)c1 [7-428]
≥ 70%: pest or weed control at 1 ppm [1] | pest or weed control at 1 ppm [3] | pest or weed control at 100 ppm [4]

CN(C(=O)c1cccc(F)c1)c1cccc(C(=O)N(C)c2c(I)cc(C(F)(C(F)(F)F)C(F)(F)F)cc2C(F)(F)F)c1F [9-2322]
≥ 70%: pest or weed control at 1 ppm [1] | pest or weed control at 100 ppm [2, 5] | pest or weed control at 1 ppm [3] | pest or weed control at 100 ppm [4]

O=C(Nc1cccc(C(=O)Nc2c(Br)cc(C(F)(C(F)(F)F)C(F)(F)F)cc2C(F)(F)F)c1F)OCC(Cl)(Cl)Cl [11-777]
≥ 70%: pest or weed control at 1 ppm [1] | pest or weed control at 1 ppm [3] | pest or weed control at 100 ppm [4]

CN(C(=O)c1ccc(F)cc1Cl)c1cccc(C(=O)Nc2c(I)cc(C(F)(C(F)(F)F)C(F)(F)F)cc2C(F)(F)F)c1 [7-449]
≥ 70%: pest or weed control at 1 ppm [1] | pest or weed control at 1 ppm [3] | pest or weed control at 100 ppm [4]

CN(C(=O)c1ccccc1F)c1cccc(C(=O)Nc2c(Br)cc(C(F)(C(F)(F)F)C(F)(F)C(F)(F)F)cc2Br)c1 (stereo not shown) [7-39]
≥ 70%: pest or weed control at 1 ppm [1] | pest or weed control at 1 ppm [3] | pest or weed control at 100 ppm [4]

CN(C(=O)OCC(Cl)(Cl)Cl)c1cccc(C(=O)Nc2c(Br)cc(C(F)(C(F)(F)F)C(F)(F)F)cc2C(F)(F)F)c1F [12-777]
≥ 70%: pest or weed control at 1 ppm [1] | pest or weed control at 1 ppm [3] | pest or weed control at 100 ppm [4]

O=C(Nc1c(I)cc(C(F)(C(F)(F)F)C(F)(F)F)cc1C(F)(F)F)c1cccc(NC(=O)c2ccc(F)cc2Br)c1 [6-453]
≥ 70%: pest or weed control at 1 ppm [1] | pest or weed control at 1 ppm [3] | pest or weed control at 100 ppm [4]

CN(C(=O)c1ccccc1)c1cccc(C(=O)Nc2c(Cl)cc(C(F)(C(F)(F)F)C(F)(F)F)cc2C(F)(F)F)c1F [7-1417]
≥ 70%: pest or weed control at 1 ppm [1] | pest or weed control at 100 ppm [2, 5] | pest or weed control at 1 ppm [3] | pest or weed control at 100 ppm [4]

O=C(Nc1cccc(C(=O)Nc2c(I)cc(C(F)(C(F)(F)F)C(F)(F)C(F)(F)F)cc2C(F)(F)F)c1F)c1cccc(F)c1 (stereo not shown) [6-1810]
≥ 70%: pest or weed control at 1 ppm [1] | pest or weed control at 100 ppm [2, 5] | pest or weed control at 1 ppm [3] | pest or weed control at 100 ppm [4]

CN(C(=O)c1ccccc1)c1cccc(C(=O)Nc2c(Br)cc(C(F)(C(F)(F)F)C(F)(F)F)cc2C(F)(F)F)n1 [17-1103, N-(2-bromo-4-(perfluoropropan-2-yl)-6-(trifluoromethyl)phenyl)-6-(N-methylbenzamide)picolinamide]
≥ 70%: pest or weed control at 10 ppm [1] | pest or weed control at 10 ppm [3] | pest or weed control at 100 ppm [4]

O=C(Nc1c(I)cc(C(F)(C(F)(F)F)C(F)(F)F)cc1C(F)(F)F)c1cccc(NC(=O)c2cc(F)c(F)cc2Cl)c1 [6-450]
≥ 70%: pest or weed control at 1 ppm [1] | pest or weed control at 1 ppm [3] | pest or weed control at 100 ppm [4]

O=C(Nc1cccc(C(=O)Nc2c(I)cc(C(F)(C(F)(F)F)C(F)(F)C(F)(F)F)cc2I)c1F)c1cccnc1Cl (stereo not shown) [6-1374]
≥ 70%: pest or weed control at 1 ppm [1] | pest or weed control at 100 ppm [2, 5] | pest or weed control at 1 ppm [3] | pest or weed control at 100 ppm [4]

O=C(Nc1c(Br)cc(C(F)(C(F)(F)F)C(F)(F)F)cc1C(F)(F)F)c1cccc(NC(=O)c2ccc(F)cc2Cl)c1 [6-293]
≥ 70%: pest or weed control at 1 ppm [1] | pest or weed control at 1 ppm [3] | pest or weed control at 100 ppm [4]

O=C(Nc1c(Br)cc(C(F)(C(F)(F)F)C(F)(F)F)cc1C(F)(F)F)c1cccc(NC(=O)c2ccccc2Cl)c1 [6-272]
≥ 70%: pest or weed control at 1 ppm [1] | pest or weed control at 1 ppm [3] | pest or weed control at 100 ppm [4]

CN(C(=O)c1ccccc1)c1nc(C(=O)Nc2c(Br)cc(C(F)(C(F)(F)F)C(F)(F)F)cc2C(F)(F)F)cs1 [27-627]
≥ 70%: pest or weed control at 1 ppm [1] | pest or weed control at 10 ppm [3] | pest or weed control at 100 ppm [4]

O=C(Nc1c(I)cc(C(F)(C(F)(F)F)C(F)(F)F)cc1C(F)(F)F)c1cccc(NC(=O)c2ccc(Cl)cc2Br)c1 [6-452]
≥ 70%: pest or weed control at 1 ppm [1] | pest or weed control at 10 ppm [3] | pest or weed control at 100 ppm [4]

CN(C(=O)c1ccc(C#N)cc1)c1cccc(C(=O)Nc2c(C(F)(F)F)cc(C(F)(C(F)(F)F)C(F)(F)F)cc2C(F)(F)F)c1 [7-825]
≥ 70%: pest or weed control at 1 ppm [1] | pest or weed control at 100 ppm [2, 5] | pest or weed control at 10 ppm [3]

CN(C(=O)c1cccc(C#N)c1)c1cccc(C(=O)Nc2c(Br)cc(C(F)(C(F)(F)F)C(F)(F)C(F)(F)F)cc2C(F)(F)F)c1F (stereo not shown) [7-1672]
≥ 70%: pest or weed control at 1 ppm [1] | pest or weed control at 100 ppm [2, 5] | pest or weed control at 1 ppm [3]

CN(C(=O)c1ccc(C#N)cc1)c1cccc(C(=O)N(C)c2c(Br)cc(C(F)(C(F)(F)F)C(F)(F)F)cc2C(F)(F)F)c1 [9-291]
≥ 70%: pest or weed control at 1 ppm [1] | pest or weed control at 100 ppm [2, 5] | pest or weed control at 1 ppm [3]

CN(C(=O)c1ccccc1)c1cccc(C(=O)Nc2c(Br)cc(C(F)(C(F)(F)F)C(F)(F)F)cc2I)c1F [7-5902]
≥ 70%: pest or weed control at 1 ppm [1] | pest or weed control at 100 ppm [2, 5] | pest or weed control at 1 ppm [3]

O=C(Nc1c(I)cc(C(F)(C(F)(F)F)C(F)(F)F)cc1I)c1cccc(NC(=O)c2c(F)cccc2F)c1F [6-1282]
≥ 70%: pest or weed control at 1 ppm [1] | pest or weed control at 100 ppm [2, 5] | pest or weed control at 1 ppm [3]

O=C(Nc1cccc(C(=O)Nc2c(I)cc(C(F)(C(F)(F)F)C(F)(F)F)cc2C(F)(F)F)c1F)OCC(Cl)(Cl)Cl [11-835]
≥ 70%: pest or weed control at 1 ppm [1] | pest or weed control at 1 ppm [3] | pest or weed control at 100 ppm [4]
